Test results: ChEMBL document CHEMBL3046148, “Synthesis and biological evaluation of resveratrolcoumarin hybrid compounds as potential antitumor agents” (Med Chem Res, 2013); call rule not given here

Columns and labels:
Assay type in all cases: functional, cell-based
[1] = Cytotoxicity against Homo sapiens (human) HCT28 cells assessed as growth inhibition after 48 hr by MTT assay
K562 = experiment: Cytotoxicity against Homo sapiens (human) K562 cells assessed as growth inhibition after 48 hr by MTT assay
MCF7 = experiment: Cytotoxicity against Homo sapiens (human) MCF7 cells assessed as growth inhibition after 48 hr by MTT assay
[2] = Homo sapiens, 48 h, read-out: IC50
[3] = Homo sapiens, K562, 48 h, read-out: IC50
[4] = Homo sapiens, MCF7, 48 h, read-out: IC50

## COc1ccc(/C=C\c2ccc3oc(=O)c(-c4ccccc4)cc3c2)cc1 [CIS-6-(4-METHOXYSTYRYL)-3-PHENYLCOUMARIN]
[1]; [2]
  IC50: 10.7 µM
K562; [3]
  IC50: 3.79 µM
MCF7; [4]
  IC50: 10.9 µM

## COc1cc(/C=C/c2ccc3oc(=O)c(-c4ccc(OC)c(OC)c4)cc3c2)cc(OC)c1 [TRANS-3-(3,4-DIMETHOXYPHENYL)-6-(3,5-DIMETHOXYSTYRYL)COUMARIN]
[1]; [2]
  IC50: 10.1 µM
K562; k562
  IC50: Not Active
MCF7; [4]
  IC50: 7.41 µM

## COc1cc(/C=C/c2ccc3oc(=O)c(-c4ccccc4)cc3c2)cc(OC)c1 [TRANS-6-(3,5-DIMETHOXYSTYRYL)-3-PHENYLCOUMARIN]
[1]
  IC50: Not Active
K562; k562
  IC50: Not Active
MCF7; [4]
  IC50: 13.5 µM

## COc1cc(/C=C\c2ccc3oc(=O)c(-c4ccccc4)cc3c2)cc(OC)c1 [CIS-6-(3,5-DIMETHOXYSTYRYL)-3-PHENYLCOUMARIN]
[1]
  IC50: Not Active
K562; k562
  IC50: Not Active
MCF7; mcf7
  IC50: Not Active

## COc1ccc(-c2cc3cc(/C=C\c4ccccc4)ccc3oc2=O)cc1OC [CIS-3-(3,4-DIMETHOXYPHENYL)-6-STYRYLCOUMARIN]
[1]
  IC50: Not Active
K562; k562
  IC50: Not Active
MCF7; mcf7
  IC50: Not Active

## COc1ccc(-c2cc3cc(/C=C/c4cc(OC)cc(OC)c4)ccc3oc2=O)cc1 [TRANS-6-(3,5-DIMETHOXYSTYRYL)-3-(4-METHOXYPHENYL)COUMARIN]
[1]; [2]
  IC50: 19.2 µM
K562; [3]
  IC50: 11.5 µM
MCF7; [4]
  IC50: 11.2 µM

## COc1ccc(/C=C/c2cc(OC)cc(OC)c2)cc1 [TRISMETHOXYRESVERATROL]
[1]; [2]
  IC50: 4.83 µM
K562; [3]
  IC50: 6.39 µM
MCF7; [4]
  IC50: 8.41 µM

## COc1cc(/C=C\c2ccc3oc(=O)c(-c4ccc(OC)c(OC)c4)cc3c2)cc(OC)c1 [CIS-3-(3,4-DIMETHOXYPHENYL)-6-(3,5-DIMETHOXYSTYRYL)COUMARIN]
[1]; [2]
  IC50: 13.5 µM
K562; k562
  IC50: Not Active
MCF7; [4]
  IC50: 9 µM

## COc1ccc(-c2cc3cc(/C=C\c4ccccc4)ccc3oc2=O)cc1 [CIS-3-(4-METHOXYPHENYL)-6-STYRYLCOUMARIN]
[1]
  IC50: Not Active
K562; k562
  IC50: Not Active
MCF7; mcf7
  IC50: Not Active

## COc1ccc(-c2cc3cc(/C=C\c4cc(OC)cc(OC)c4)ccc3oc2=O)cc1 [CIS-6-(3,5-DIMETHOXYSTYRYL)-3-(4-METHOXYPHENYL)COUMARIN]
[1]
  IC50: Not Active
K562; k562
  IC50: Not Active
MCF7; mcf7
  IC50: Not Active

## COc1ccc(/C=C\c2ccc3oc(=O)c(-c4ccc(OC)c(OC)c4)cc3c2)cc1 [CIS-3-(3,4-DIMETHOXYPHENYL)-6-(4-METHOXYSTYRYL)COUMARIN]
[1]
  IC50: Not Active
K562; k562
  IC50: Not Active
MCF7; mcf7
  IC50: Not Active

## COc1ccc(/C=C/c2ccc3oc(=O)c(-c4ccc(OC)c(OC)c4)cc3c2)cc1 [TRANS-3-(3,4-DIMETHOXYPHENYL)-6-(4-METHOXYSTYRYL)COUMARIN]
[1]; [2]
  IC50: 7.14 µM
K562; [3]
  IC50: 8.76 µM
MCF7; [4]
  IC50: 4.23 µM

## COc1ccc(-c2cc3cc(/C=C/c4ccccc4)ccc3oc2=O)cc1OC [TRANS-3-(3,4-DIMETHOXYPHENYL)-6-STYRYLCOUMARIN]
[1]; [2]
  IC50: 10.8 µM
K562; k562
  IC50: Not Active
MCF7; [4]
  IC50: 14.5 µM

## COc1ccc(/C=C/c2ccc3oc(=O)c(-c4ccccc4)cc3c2)cc1 [TRANS-6-(4-METHOXYSTYRYL)-3-PHENYLCOUMARIN]
[1]; [2]
  IC50: 3.78 µM
K562; [3]
  IC50: 13 µM
MCF7; [4]
  IC50: 7.32 µM
